Test results as given in ChEMBL document CHEMBL1201862, “PubChem BioAssay data set” (2004).
Calls of active or inactive are those of the source. Rule as the data show it, for most assays here: actives have a measured EC50 and inactives only a lower limit.

What was measured:
[1] = inhibitors of intracellular T. cruzi replication, confirmation, NIH3T3 host cells, beta-gal luminescence (AID 2044); type: functional, cell-based;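 also: intracellular parasites grown in NIH/3T3 mouse fibroblasts as host cells; luminescent beta-galactosidase reporter signal from transgenic T. cruzi replicating inside host cells; inhibitors lower the luminescence signal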
[2] = cytotoxicity toward NIH3T3 fibroblasts, dose response, counter-screen, cell-based, ATP luminescence, mouse fibroblasts (AID 2010); type: functional;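 also: cells exposed to compound for about 90 hours before reading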
[3] = system: Streptococcus sp. 'group A'; test: growth inhibition of control SK(-) GAS strain, dose response, counter-screen for streptokinase expression inhibitor project, luminescence, kanamycin, BacTiterGlo, confirmation (AID 1900); type: functional, organism-based
Streptococcus = test: Group A Streptococcus viability loss, dose response, counter-screen for streptokinase expression inhibitor project, luminescence, BacTiterGlo (AID 1915); type: functional, organism-based;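 also: potency for reduction of bacterial viability or growth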
[4] = HEp-2 cell cytotoxicity, dose response, cytotoxicity control for RSV inhibitor project, HTS (AID 2410); type: functional; conditions: human respiratory syncytial virus
[5] = Luminescence Cell-Based Dose Retest to Confirm Inhibitors of Cancer Stem Cells. [Related pubchem assays (depositor defined):AID2717, AID2721]; type: functional; conditions: Homo sapiens
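For AC50 in this document: cells exposed to compound for roughly 70 hours or longer before luminescence read.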

SMILES	EC50 [1]	EC50 [2]	CC50 [4]	also measured
Cc1ccc(CN(Cc2cccnc2)C(=O)CN2C(=O)COc3ccccc32)o1	0.276 µM (active)	> 60 µM (not active)	–	–
O=C(NNC(=S)NC(=O)c1ccccc1)c1cccc([N+](=O)[O-])c1	–	–	–	EC50 [3]: 3.85 µM (active); EC50 (Streptococcus): 8.75 µM (active)
FCCCOc1ccc(-c2nccc(-c3ccc(F)cc3)n2)cc1	–	–	26 µM (active)	–
Cc1cc(C(=O)CSc2nnc(N)s2)c(C)n1CCc1ccc(Cl)cc1	–	–	17.1 µM (active)	–
CN(C)S(=O)(=O)Oc1ccsc1C(=O)Nc1cccc(Cl)c1Cl	3.47 µM (active)	> 60 µM (not active)	–	–
Cc1nc(O)c(C#N)c(Nc2ccc(Cl)cc2)n1	–	–	32.3 µM (active)	–
COC(=O)NC(=S)Nc1ccc(Oc2ccc(Cl)cc2)c(Cl)c1	2.41 µM (active)	> 60 µM (not active)	–	–
COc1ccc(NC(=O)/C=C/c2cccc(F)c2)cn1	–	–	34.7 µM (active)	–
O=C(c1cc2sccc2n1Cc1ccc(F)cc1)N1CCc2ccccc21	–	–	36.2 µM (active)	–
CCOc1ccc(CNCCCSc2ncccn2)cc1	0.909 µM (active)	9.74 µM (active)	–	–
COc1cc(C(=O)NCCCN(C)C)ccc1OCC(=O)Nc1cccc(C(F)(F)F)c1	1.23 µM (active)	> 60 µM (not active)	–	–
COc1ccc(/C=C2\SC(=S)N(NS(=O)(=O)c3ccccc3)C2=O)c(OC)c1	–	–	35.4 µM (active)	–
CCNC(=O)COC(=O)/C=C/c1c(C)nn(Cc2cccc(OC)c2)c1Cl	–	–	> 50 µM (active)	–
Cc1ccc(-c2cc(C(F)F)nc(NCc3cccnc3)n2)cc1	3.05 µM (active)	> 60 µM (not active)	–	–
O=C(CCn1ccnc1)Nc1ccc2ccccc2c1	1.63 µM (active)	> 60 µM (not active)	–	–
COc1ccc(OC)c(NC(=O)c2cccc(Cn3cc(Br)c([N+](=O)[O-])n3)c2)c1	0.794 µM (active)	9.07 µM (active)	–	–
COc1cc(NC(=O)Nc2cccc(Cl)c2)c(OC)cc1NC(=O)CN1CCCCC1	–	–	–	AC50 [5]: 4.44 µM (active)
CCOC(=O)CC(=O)CSc1nc(N)c(C#N)c(-c2ccc(Cl)cc2)c1C#N	–	–	23.6 µM (active)	–
COCc1cc(C)nc2sc(C(=O)NN)c(-n3cccc3)c12	–	–	14.3 µM (active)	–
O=C(Nc1nc2cc3c(cc2s1)OCO3)C1CC1	1.3 µM (active)	> 60 µM (not active)	–	–
COc1ccc2nc(NC(=S)NC(=O)c3ccco3)sc2c1	–	–	> 50 µM (active)	–
COCC(C)n1c(SCc2ccc(OC)c(F)c2)nc2ccccc2c1=O (stereo not drawn)	2.17 µM (active)	> 60 µM (not active)	–	–
CN(C)CC(C)(C)C/N=C/c1c(O)[nH]c2ccccc12	0.152 µM (active)	> 30 µM (not active)	–	–
Cc1ccc(C)c(OCCCCN2CCNCC2)c1C	–	–	–	AC50 [5]: 1.03 µM (active)
CCOCCCN=C(S)N1CCCN(c2nc3cc(C)cc(C)c3cc2C#N)CC1	–	–	31.4 µM (active)	–
C[C@H](CO)N1C[C@H](C)[C@@H](CN(C)S(=O)(=O)c2ccccc2)Oc2ccc(NC(=O)Nc3ccc(C(F)(F)F)cc3)cc2C1=O	–	–	–	AC50 [5]: 8.42 µM (active)
Cc1ccc(C)c(N2CCN(C(=O)c3ccc4c(c3)c(C)c(C)n4C)CC2)c1	–	–	–	AC50 [5]: 6.01 µM (active)
CCC(C)Sc1ccc(-c2nc3ccc(C)cn3c2NC2CCCCC2)cc1 (stereo not drawn)	0.885 µM (active)	> 60 µM (not active)	–	–
Cc1cc(C)nc(NC(=O)/C=C/c2ccc3c(c2)OCO3)c1	–	–	–	AC50 [5]: 1.91 µM (active)
COc1ccc(Br)cc1C(=O)Nc1cccc(C)c1	–	–	–	AC50 [5]: > 195 µM (inactive)
